Laboratory results as given in US20040054182A1, “1h-imidazopyridine derivatives” (priority 2000, published 2004).
Where a name gives a salt, the structure may show the parent alone.

For `FC(F)(F)c1nc2ccccc2c2c1nc(-c1ccc[nH]1)n2CCC1CCNCC1` [Example 64, 1-[2-(4-Piperidyl)ethyl]-2-(2-pyrrolyl)-4-trifluoromethyl-1H-imidazo[4,5-c]-quinoline], the melting point was 280 to 282.5 °C (dec.).
A melting point of 161 to 162 °C was found for `Cc1ccc2c(c1)nc(C(F)(F)F)c1nc(-c3ccccc3O)n(CCC3CCNCC3)c12` (as salt: trifluoroacetate) in this work.
For `FC(F)(F)c1nc2ccccc2c2c1nc(-c1ccccc1)n2CCC1CC2CCC(C1)N2` (centres unmarked) (as salt: trifluoroacetate), the melting point was 249 to 251 °C (dec.).
With `CN(C)CC(=O)NCCn1c(-c2ccc[nH]2)nc2c(C(F)(F)F)nc3ccccc3c21.O=C(O)/C=C/C(=O)O` [Example 129, 2-Dimethylamino-N-[2-[2-(2-pyrrolyl)-4-trifluoromethyl-1H-imidazo[4,5-c]quinolin-1-yl]ethyl]acetamide fumarate] the melting point was 219 to 222 °C (dec.).
With `Cc1ccc2c(c1)nc(C(F)(F)F)c1nc(-c3ccccc3)n(CCC3CCNCC3)c12` (as salt: trifluoroacetate) [Example 86, 7-Methyl-2-phenyl-1-[2-(4-piperidyl)ethyl]-4-trifluoromethyl-1H-imidazo[4,5-c]-quinoline] the melting point was 234 to 235 °C (dec.).
With `Fc1ccc2c(c1)nc(C(F)(F)F)c1nc(-c3nccs3)n(CCC3CCNCC3)c12` (as salt: trifluoroacetate) [Example 82, 7-Fluoro-1-[2-(4-piperidyl)ethyl]-2-(2-thiazolyl)-4-trifluoromethyl-1H-imidazo-[4,5-c]quinoline] the melting point was 236 to 237 °C (dec.).
With `Cc1cccc2c1nc(C(F)(F)F)c1nc(-c3ccco3)n(CCC3CCNCC3)c12` (as salt: trifluoroacetate) (hydrate or solvate) the melting point was 232 to 234 °C (dec.).
For `NCC(=O)NCCn1c(-c2ccc[nH]2)nc2c(C(F)(F)F)nc3ccccc3c21.O=C(O)/C=C/C(=O)O` [Example 131, 2-Amino-N-[2-[2-(2-pyrrolyl)-4-trifluoromethyl-1H-imidazo[4,5-c]quinolin-1-yl]ethyl]-acetamide fumarate], the melting point was 176 to 177 °C (dec.).
In the case of `Cc1cccc2c1nc(C(F)(F)F)c1nc(-c3ccccc3)n(CCC3CCNCC3)c12` (as salt: trifluoroacetate) [Example 93, 6-Methyl-2-phenyl-1-[2-(4-piperidyl)ethyl]-4-trifluoromethyl-1H-imidazo-[4,5-c]quinoline], the melting point is reported as 218 to 219 °C (dec.).
A melting point of 209 to 211 °C was found for `c1ccc(-c2nc3ccccc3c3c2nc(-c2ccccc2)n3CCC2CCNCC2)cc1` [Example 112, 2,4-Diphenyl-1-[2-(4-piperidyl)ethyl]-1H-imidazo[4,5-c]quinoline] in this work.
A melting point of 224.5 to 225.5 °C was found for `c1ccc(-c2nc3c(-c4ccco4)nc4ccccc4c3n2CCC2CCNCC2)cc1` in this work.
With `N#Cc1nc2ccccc2c2c1nc(-c1ccccc1)n2CCC1CCNCC1` (as salt: trifluoroacetate) (hydrate or solvate) [Example 117, 4-Cyano-2-phenyl-1-[2-(4-piperidyl)ethyl]-1H-imidazo[4,5-c]quinoline] the melting point was 245 to 251 °C (dec.).
A melting point of 207.5 to 208 °C was found for `CN(C)CC(=O)NCCn1c(-c2ccccc2)nc2c(C(F)(F)F)nc3ccccc3c21.O=C(O)/C=C/C(=O)O` [Example 128, 2-Dimethylamino-N-[2-(2-phenyl-4-trifluoromethyl-1H-imidazo[4,5-c]quinolin-1-yl)-ethyl]acetamide fumarate] in this work.
In the case of `FC(F)(F)c1nc2cc(Cl)ccc2c2c1nc(-c1ncc[nH]1)n2CCC1CCNCC1` (as salt: trifluoroacetate) [Example 75, 7-Chloro-2-(2-1H-imidazolyl)-1-[2-(4-piperidyl)ethyl]-4-trifluoromethyl-1H-imidazo[4,5-c]quinoline], the melting point is reported as 290 to 295 °C (dec.).
With `Cc1cccc2c1nc(C(F)(F)F)c1nc(-c3cccs3)n(CCC3CCNCC3)c12` (as salt: trifluoroacetate) (hydrate or solvate) [Example 98, 6-Methyl-1-[2-(4-piperidyl)ethyl]-2-(2-thienyl)-4-trifluoromethyl-1H-imidazo-[4,5-c]quinoline] the melting point was 227 to 229 °C (dec.).
For `Cc1ccc2c(c1)nc(C(F)(F)F)c1nc(-c3nccs3)n(CCC3CCNCC3)c12` (as salt: trifluoroacetate) (hydrate or solvate) [Example 88, 7-Methyl-1-[2-(4-piperidyl)ethyl]-2-(2-thiazolyl)-4-trifluoromethyl-1H-imidazo-[4,5-c]quinoline], the melting point was 239 to 241 °C (dec.).
A melting point of 234 to 235 °C was found for `O=C(CCl)NCCn1c(-c2ccc[nH]2)nc2c(C(F)(F)F)nc3ccccc3c21` [Example 125, 2-chloro-N-[2-[2-(2-pyrrolyl)-4-trifluoromethyl-1H-imidazo-[4,5-c]quinolin-1-yl]ethyl]acetamide] in this work.
A melting point of 174.5 to 175.5 °C was found for `NCCn1c(-c2ccccc2)nc2c(C(F)(F)F)nc3ccccc3c21` [Example 108, 1-(2-Aminoethyl)-2-phenyl-4-trifluoromethyl-1H-imidazo[4,5-c]quinoline] in this work.
A melting point of 182.5 to 184 °C was found for `FC(F)(F)c1nc2ccccc2c2c1nc(C1CCCCC1)n2CCC1CCNCC1` (as salt: trifluoroacetate) [Example 71, 2-Cyclohexyl-1-[2-(4-piperidyl)ethyl]-4-trifluoromethyl-1H-imidazo[4,5-c]quinoline] in this work.
A melting point of 237 to 239 °C was found for `FC(F)(F)c1nc2ccccc2c2c1nc(-c1cccs1)n2CCC1CCNCC1` (as salt: trifluoroacetate) (hydrate or solvate) [Example 66, 1-[2-(4-Piperidyl)ethyl]-2-(2-thienyl)-4-trifluoromethyl-1H-imidazo[4,5-c]-quinoline] in this work.
With `Fc1ccc2c(c1)nc(C(F)(F)F)c1nc(-c3ncc[nH]3)n(CCC3CCNCC3)c12` (as salt: trifluoroacetate) (hydrate or solvate) [Example 83, 7-Fluoro-2-(2-1H-imidazolyl)-1-[2-(4-piperidyl)ethyl]-4-trifluoromethyl-1H-imidazo[4,5-c]quinoline] the melting point was 249 to 250 °C (dec.).
With `FC(F)(F)c1nc2cc(Cl)ccc2c2c1nc(-c1cccs1)n2CCC1CCNCC1` (as salt: trifluoroacetate) (hydrate or solvate) [Example 77, 7-Chloro-1-[2-(4-piperidyl)ethyl]-2-(2-thienyl)-4-trifluoromethyl-1H-imidazo-[4,5-c]quinoline] the melting point was 217 to 219 °C (dec.).
For `FC(F)(F)c1nc2ccccc2c2c1nc(-c1ccco1)n2CCC1CCNCC1` (as salt: trifluoroacetate) (hydrate or solvate), the melting point was 133.5 to 136.5 °C (dec.).
For `Fc1ccc2c(c1)nc(C(F)(F)F)c1nc(-c3ccccc3)n(CCC3CCNCC3)c12` (as salt: trifluoroacetate) [Example 80, 7-Fluoro-2-phenyl-1-[2-(4-piperidyl)ethyl]-4-trifluoromethyl-1H-imidazo[4,5-c]-quinoline], the melting point was 240 to 242 °C (dec.).
With `FC(F)(F)c1nc2cc(Cl)ccc2c2c1nc(C1CCCCC1)n2CCC1CCNCC1` (as salt: trifluoroacetate) [Example 79, 7-Chloro-2-cyclohexyl-1-[2-(4-piperidyl)ethyl]-4-trifluoromethyl-1H-imidazo-[4,5-c]quinoline] the melting point was 236 to 237 °C (dec.).
With `FC(F)(F)c1nc2ccccc2c2c1nc(-c1ccccc1)n2CCC1CCCNC1` (centres unmarked) (as salt: trifluoroacetate) the melting point was 229.5 to 231.5 °C (dec.).
A melting point of 212 to 215 °C was found for `O=C(O)c1nc2ccccc2c2c1nc(-c1ccccc1)n2CCC1CCNCC1` (as salt: trifluoroacetate) (hydrate or solvate) [Example 118, 2-Phenyl-1-[2-(4-piperidyl)ethyl]-1H-imidazo[4,5-c]quinoline-4-carboxylic acid] in this work.
With `Cc1cccc2c1nc(C(F)(F)F)c1nc(-c3nccs3)n(CCC3CCNCC3)c12` (as salt: trifluoroacetate) [Example 95, 6-Methyl-1-[2-(4-piperidyl)ethyl]-2-(2-thiazolyl)-4-trifluoromethyl-1H-imidazo-[4,5-c]quinoline] the melting point was 243 to 245 °C (dec.).
For `Cc1cccc2c1nc(C(F)(F)F)c1nc(-c3ncc[nH]3)n(CCC3CCNCC3)c12` (as salt: trifluoroacetate) (hydrate or solvate) [Example 96, 2-(2-1H-Imidazolyl)-6-methyl-1-[2-(4-piperidyl)ethyl]-4-trifluoromethyl-1H-imidazo[4,5-c]quinoline], the melting point was 306 to 308 °C (dec.).
A melting point of 268 to 270 °C was found for `c1ccc(-c2nc3ccccc3c3c2nc(-c2ccc[nH]2)n3CCC2CCNCC2)cc1` (hydrate or solvate) [Example 113, 4-Phenyl-1-[2-(4-piperidyl)ethyl]-2-(2-pyrrolyl)-1H-imidazo[4,5-c]quinoline] in this work.
In the case of `Cc1ccc2c(c1)nc(C(F)(F)F)c1nc(-c3ccc[nH]3)n(CCC3CCNCC3)c12` (as salt: trifluoroacetate) (hydrate or solvate) [Example 87, 7-Methyl-1-[2-(4-piperidyl)ethyl]-2-(2-pyrrolyl)-4-trifluoromethyl-1H-imidazo-[4,5-c]quinoline], the melting point is reported as 280 to 284 °C (dec.).
For `Cc1cccc2c1nc(C(F)(F)F)c1nc(-c3ccc[nH]3)n(CCC3CCNCC3)c12` (as salt: trifluoroacetate) (hydrate or solvate) [Example 94, 6-Methyl-1-[2-(4-piperidyl)ethyl]-2-(2-pyrrolyl)-4-trifluoromethyl-1H-imidazo-[4,5-c]quinoline], the melting point was 233 to 234 °C (dec.).
For `FC(F)(F)c1nc2ccccc2c2c1nc(-c1ccccc1)n2CCC1CNCCO1` (centres unmarked) (as salt: trifluoroacetate) (hydrate or solvate) [Example 101, 1-[2-(2-Morpholinyl)ethyl]-2-phenyl-4-trifluoromethyl-1H-imidazo[4,5-c]-quinoline], the melting point was 224 to 228 °C (dec.).
A melting point of 212 to 213.5 °C was found for `c1c[nH]c(-c2nc3c(C4CC4)nc4ccccc4c3n2CCC2CCNCC2)c1` (hydrate or solvate) [Example 111, 4-Cyclopropyl-1-[2-(4-piperidyl)ethyl]-2-(2-pyrrolyl)-1H-imidazo[4,5-c]quinoline] in this work.
A melting point of 210 to 212 °C was found for `c1ccc(-c2nc3c(-c4cccs4)nc4ccccc4c3n2CCC2CCNCC2)cc1` (as salt: salt) [Example 115, 2-Phenyl-1-[2-(4-piperidyl)ethyl]-4-(2-thienyl)-1H-imidazo[4,5-c]quinoline] in this work.
